Reference: article PMC12188386, “Selective CBP/EP300 Bromodomain Inhibitors: Novel Epigenetic Tools to Counter TNF-α-Driven Inflammation” (JACS Au, 2025)

Assays:
[1] = tested on: panel of 32 bromodomains; test: bromoMAX BROMOscan panel; type: binding; conditions: 1 µM
Description: was used as the calibration curve. To obtain saturated solutions of the compounds of interest, in duplicates 4.4 µL of a 10 or 5 mM stock in DMSO was added to 436 µL Buffer (PBS, pH = 7.4), to give a final concentration of 100 or 50 µM. Samples were incubated on a shaker (500 rpm) at 37°C for 90 minutes and then filtered (Millex-GV 13 mm, 0.22 µm). 304 µL of the filtrate was mixed with 76 µL of acetonitrile on a dilution plate, from which 350 µL was transferred to a UV-plate and UV-absorption was read using a SpectraMax M5 (Molecular devices). The absorbance was blank-corrected and compared to the calibration curve to […]
solubility. […]
lower solubility (2) compounds respectively in a 12.5 w/v% CAPTISOL® solution in water. […] Based on the known density of 12.5 % CAPTISOL® solution (d = 1.05755 g/mL at 25 °C), the precise weight of the resulting solution and so the required amount of water by weight was calculated. […] In duplicates, aliquots of the filtrates were taken and diluted with blank 12.5 % CAPTISOL® water solution in either a 1:14 (higher sol. compounds) or 1:7 (lower sol. compounds) ratio, 350 µL was transferred to a 96-Well Plate (Greiner, UV-star) then UV absorption (240-400 nm, 10 nm steps) was measured using a SpectraMax M5 (Molecular devices). […] The calculated concentrations are available in Table S4. […]
The bromodomain concentration in the eluates was measured by qPCR. […]

[2] = tested on: TNF-α-induced IL-8 secretion from THP-1 cells; test: cytokine protein measurement (LEGENDPlex); type: cell-based, human; conditions: 10 ng/mL TNF-α, 1 μM compound
Description: For cytokine expression determination, 5x10^5 THP-1 cells were plated on 12 well plates the day prior to treatment with 10 ng/mL recombinant human TNF -α (aa 77-233) protein (R&D systems, 10291 -TA) and compounds at a final concentration of 0.1 % DMSO. In all cases, total […]
Cytokine protein measurements
THP-1 cells were plated and treated as for the quantitative RT -PCR, then the cell culture medium was harvested by pelleting the cells (300g, 3min) and taking the supernatant .
Cytokine protein concentrations were determined using the LEGENDPlexTM Human Inflammation Panel 1 (BioLegend) assay with 25 µL of culture medium following the manufacturer’s instructi ns. amp es were ana zed f w c t metr n an rtessa Biosciences), and data was analyzed using LEGENDPlex software (BioLegend).

[3] = tested on: MRC5 cells; test: viability assay (resazurin); type: cell-based; conditions: three-day treatment, concentration resulting in 70 % viability
Description: MRC5 (2x10^3 cells/well) or THP-1 (8x10^3 cells/well) cells were plated onto 96 well plates and treated with compounds at a final DMSO concentration of 0.5 % (MRC5) or 0.1 % (THP-1).
After 3 days of treatment, resazurin (Acros Organics) was added at a final concentration of 86 μ and incu ated for 2h15 (MRC5) or 3 h (THP-1). Fluorescence (ex. 560 nm, em. 590 nm) was read using a SpectraMax M5 (Molecular devices). GI30 values were calculated as the compound concentration resulting in 70 % viability compared to DMSO treated controls using a nonlinear regression fit using GraphPad Prism with the following equation: (Y=Bottom + (100-Bottom)/(1+(IC50/X)^HillSlope)). […]
After 1.5 h, mice were injected with 10 µL of the prepared CAPTISOL […]
foodpad and also intraperitoneally (for i.p. injection, the 10 µL of CAPTISOL solution was diluted to a final volume of 100 µL using PBS). Organs were collected 5 h after TNF-α […]
LEGENDPlexTM assays (Mouse Pro-inflammatory Chemokine Panel and Mouse Inflammation Panel; Biolegend) were performed to monitor cytokine/chemokine expression. Briefly, popliteal LNs were collected and carefully disrupted in […] ice-cold phosphate buffer, minimizing cell rupture. The suspension was centrifuged at 1,500 rpm for 5 min, and the […]

| SMILES | selectivity over BRD4(1) and a broader panel of BRD-containing proteins [1] | TNF-α-induced IL-8 protein secretion [2] | GI30 [3] [µM] |
| --- | --- | --- | --- |
| Cc1cc2c(NC(=O)c3cc(NC(=O)c4ccco4)cc(-c4ccn(C)n4)c3)cccc2nn1 [Compound 2] | highly selective | significantly reducing its TNF-α-induced secretion | > 10 |
| Cc1cc2c(NC(=O)c3cc(NC(=O)[C@H]4CCCO4)cc(-c4ccn(C)n4)c3)cccc2nn1 [Compound 5] | highly selective |  | > 10 |
